The record followed here is patent publication US20090156577A1, “7-AMINO ALKYLIDENYL-HETEROCYCLIC QUINOLONES AND NAPHTHYRIDONES” (priority 2004, published 2009).

The test system of this test is pathogenic bacteria. In words: MIC by microdilution broth method (NCCLS M7-A4), in vitro antibacterial activity. The class given is cell-based. The protocol: Minimal inhibitory concentration (MIC) has been an indicator of in vitro antibacterial activity widely used in the art. The in vitro antimicrobial activity of the compounds was determined by the microdilution broth method following the test method from the National Committee for Clinical Laboratory Standards (NCCLS). This method is described in the NCCLS Document M7-A4, Vol. 17, No. 2, “Methods for Dilution Antimicrobial Susceptibility Test for Bacteria that Grow Aerobically—Fourth Edition”, which is incorporated herein by reference.
In this method two-fold serial dilutions of drug in cation adjusted Mueller-Hinton broth are added to wells in microdilution trays. The test organisms are prepared by adjusting the turbidity of actively growing broth cultures so that the final concentration of test organism after it is added to the wells is approximately 5×10^4 CFU/well.
Following inoculation of the microdilution trays, the trays are incubated at 35° C. for 16-20 hours and then read. […] The amount of growth in the wells containing the test compound is compared with the amount of growth in the growth-control wells (no test compound) used in each tray. As set forth in Table 5, compounds of the present invention were tested against a variety of pathogenic bacteria resulting in a range of activities depending on the organism tested.
For orientation: Broth dilution looks for growth in wells or tubes with falling amounts of substance.

Setting [1] is: Staphylococcus aureus, Organism A: Staphylococcus aureus OC4172, read-out: MIC.
The mark [2] stands for this setting: Streptococcus pneumoniae, ATCC49619, Organism E: Streptococcus pneumoniae ATCC 49619, read-out: MIC.
Setting [3] is: Streptococcus pneumoniae, Organism B: fluoroquinolone-resistant clinical isolate of Streptococcus pneumoniae (QRDR amino acid substitutions).
Setting [4] is: Streptococcus pneumoniae, Organism C: fluoroquinolone-resistant clinical isolate of Streptococcus pneumoniae (QRDR amino acid substitutions).
[5] abbreviates: Streptococcus pneumoniae, Organism D: fluoroquinolone-resistant clinical isolate of Streptococcus pneumoniae (QRDR amino acid substitutions).

≈ marks a conversion by molar mass, not a printed value. Structures can show the parent of a compound that is named as a salt. Where two headings read alike, the source gives them in different places.

The term MIC denotes the least concentration at which growth counts as inhibited. Turning to `NCC(F)=C1CCN(c2nc3c(cc2F)c(=O)c(C(=O)O)cn3C2CC2)CC1` [Compound 1, 7-[4-(2-Amino-1-fluoro-ethylidene)-piperidin-1-yl]-1-cyclopropyl-6-fluoro-4-oxo-1,4-dihydro-[1,8]naphthyridine-3-carboxylic acid], the minimum inhibitory concentration (MIC) is, setting by setting: under setting [1], 0.03 µg/mL (≈ 0.0768 µM); under setting [2], 0.12 µg/mL (≈ 0.307 µM); under setting [3], 2 µg/mL (≈ 5.12 µM); under setting [4], 0.5 µg/mL (≈ 1.28 µM); under setting [5], 1 µg/mL (≈ 2.56 µM).

`CC(CN)=C1CCN(c2nc3c(cc2F)c(=O)c(C(=O)O)cn3C2CC2)CC1` [Compound 2, 7-[4-(2-Amino-1-methyl-ethylidene)-piperidin-1-yl]-1-cyclopropyl-6-fluoro-4-oxo-1,4-dihydro-[1,8]naphthyridine-3-carboxylic acid]: the MIC under setting [1] was 0.06 µg/mL (≈ 0.155 µM); the MIC under setting [2] amounted to 0.12 µg/mL (≈ 0.311 µM); the lowest concentration to inhibit growth under setting [3] (MIC) was 0.25 µg/mL (≈ 0.647 µM); inhibition of growth under setting [4] (MIC) required 1 µg/mL (≈ 2.59 µM); the MIC under setting [5] was 1 µg/mL (≈ 2.59 µM).

Regarding `NCC(Cl)=C1CCN(c2nc3c(cc2F)c(=O)c(C(=O)O)cn3C2CC2)CC1` [Compound 3, 7-[4-(2-Amino-1-chloro-ethylidene)-piperidin-1-yl]-1-cyclopropyl-6-fluoro-4-oxo-1,4-dihydro-[1,8]naphthyridine-3-carboxylic acid], the MIC under setting [1] is 0.06 µg/mL (≈ 0.147 µM); the MIC under setting [2] amounted to 0.12 µg/mL (≈ 0.295 µM); the MIC under setting [3] amounted to 1 µg/mL (≈ 2.46 µM); the MIC under setting [4] is 0.25 µg/mL (≈ 0.614 µM); the MIC under setting [5] worked out at 1 µg/mL (≈ 2.46 µM).

For the compound `NCC(F)=C1CCN(c2nc3c(cc2F)c(=O)c(C(=O)O)cn3-c2ccc(F)cc2F)CC1` [Compound 4, 7-[4-(2-Amino-1-fluoro-ethylidene)-piperidin-1-yl]-1-(2,4-difluoro-phenyl)-6-fluoro-4-oxo-1,4-dihydro-[1,8]naphthyridine-3-carboxylic acid], the MIC under setting [1] was 0.06 µg/mL (≈ 0.13 µM), the MIC under setting [2] turned out to be 0.25 µg/mL (≈ 0.541 µM), the MIC under setting [4] is 1 µg/mL (≈ 2.16 µM) and the MIC under setting [5] came to 2 µg/mL (≈ 4.33 µM).

Turning to `NCC(F)=C1CCN(c2cc3c(cc2F)c(=O)c(C(=O)O)cn3C2CC2)CC1` [Compound 5, 7-[4-(2-Amino-1-fluoro-ethylidene)-piperidin-1-yl]-l - cyclopropyl-6-fluoro-4-oxo-1,4-dihydro-quinoline-3-carboxylic acid trifluoroacetic acid salt], the MIC by setting is: under setting [1], 0.03 µg/mL; under setting [4], 1 µg/mL.

For the compound `COc1c(N2CCC(=C(C)CN)CC2)c(F)cc2c(=O)c(C(=O)O)cn(C3CC3)c12` [Compound 6, 7-[4-(2-Amino-1-methyl-ethylidene)-piperidin-1-yl]-1-cyclopropyl-6-fluoro-8-methoxy-4-oxo-1,4-dihydro-quinoline-3-carboxylic acid], the MIC came to 0.03 µg/mL (≈ 0.0722 µM) under setting [1], 0.06 µg/mL (≈ 0.144 µM) under setting [2] and 0.5 µg/mL (≈ 1.2 µM) under setting [4].

In the case of `COc1c(N2CCC(=C(Cl)CN)CC2)c(F)cc2c(=O)c(C(=O)O)cn(C3CC3)c12` [Compound 7, 7-[4-(2-Amino-1-chloro-ethylidene)-piperidin-1-yl]-1-cyclopropyl-6-fluoro-8-methoxy-4-oxo-1,4-dihydro-quinoline-3-carboxylic Acid], the minimum inhibitory concentration (MIC) under setting [1] is 0.015 µg/mL (≈ 0.0344 µM); the MIC under setting [2] was 0.06 µg/mL (≈ 0.138 µM); the MIC under setting [3] was 0.06 µg/mL (≈ 0.138 µM); the MIC under setting [4] was found to be 0.12 µg/mL (≈ 0.275 µM); it took 0.12 µg/mL (≈ 0.275 µM) to inhibit growth under setting [5] (MIC).

For the compound `CC1COc2c(N3CCC(=C(F)CN)CC3)c(F)cc3c(=O)c(C(=O)O)cn1c23` (centres unmarked) [Compound 8, 9-[4-(2-Amino-1-fluoro-ethylidene)-piperidin-1-yl]-8-fluoro-3-methyl-6-oxo-2,3-dihydro-6H-1-oxa-3a-aza-phenalene-5-carboxylic acid], the MIC reads like this: under setting [1], 0.25 µg/mL (≈ 0.617 µM); under setting [2], 0.5 µg/mL (≈ 1.23 µM); under setting [3], 2 µg/mL (≈ 4.93 µM); under setting [4], 8 µg/mL (≈ 19.7 µM); under setting [5], 8 µg/mL (≈ 19.7 µM).

As to `CC(CN)=C1CCN(c2c(F)cc3c(=O)c(C(=O)O)cn4c3c2OCC4C)CC1` (centres unmarked) [Compound 9, 9-[4-(2-Amino-1-methyl-ethylidene)-piperidin-1-yl]-8-fluoro-3-methyl-6-oxo-2,3-dihydro-6H-1-oxa-3a-aza-phenalene-5-carboxylic acid], the MIC reads like this: under setting [1], 0.5 µg/mL (≈ 1.25 µM); under setting [2], 1 µg/mL (≈ 2.49 µM); under setting [3], 4 µg/mL (≈ 9.96 µM); under setting [4], over 16 µg/mL; under setting [5], over 16 µg/mL.

Regarding `COc1c(N2CCC(=C(F)CN)CC2)ccc2c(=O)c(C(=O)O)cn(C3CC3)c12` [Compound 10, 7-[4-(2-Amino-1-fluoro-ethylidene)-piperidin-1-yl]-1-cyclopropyl-8-methoxy-4-oxo-1,4-dihydro-quinoline-3-carboxylic acid], the MIC was 0.03 µg/mL (≈ 0.0747 µM) under setting [1], 0.12 µg/mL (≈ 0.299 µM) under setting [2], 0.5 µg/mL (≈ 1.25 µM) under setting [4] and 1 µg/mL (≈ 2.49 µM) under setting [5].

On to `COc1c(N2CC/C(=C(/F)CN)C(C)C2)c(F)cc2c(=O)c(C(=O)O)cn(C3CC3)c12` (centres unmarked) [Compound 11, (Z)-7-[4-(2-Amino-1-fluoro-ethylidene)-3-methyl-piperidin-1-yl]-1-cyclopropyl-6-fluoro-8-methoxy-4-oxo-1,4-dihydro-quinoline-3-carboxylic acid], for which the MIC under setting [1] is 0.03 µg/mL (≈ 0.0692 µM), the MIC under setting [2] came to 0.12 µg/mL (≈ 0.277 µM), the MIC under setting [4] came to 0.5 µg/mL (≈ 1.15 µM) and the MIC under setting [5] was 1 µg/mL (≈ 2.31 µM).

Regarding `COc1c(N2CCC(=C(F)CN)CC2)c(F)cc2c(=O)c(C(=O)O)cn(C3CC3)c12` [Compound 12, (E)-7-[4-(2-Amino-1-fluoro-ethylidene)-piperidin-1-yl]-1-cyclopropyl-7-6-fluoro-8-methoxy-4-oxo-1,4-dihydro-quinoline-3-carboxylic acid], the minimum inhibitory concentration (MIC) came out at 0.12 µg/mL (≈ 0.286 µM) (Organism A: Staphylococcus aureus OC4172); 2 µg/mL (≈ 4.77 µM) (Organism B: fluoroquinolone-resistant clinical isolate of Streptococcus pneumoniae (QRDR amino acid substitutions)); 4 µg/mL (≈ 9.54 µM) (Organism C: fluoroquinolone-resistant clinical isolate of Streptococcus pneumoniae (QRDR amino acid substitutions)); 4 µg/mL (≈ 9.54 µM) (Organism D: fluoroquinolone-resistant clinical isolate of Streptococcus pneumoniae (QRDR amino acid substitutions)); 0.5 µg/mL (≈ 1.19 µM) (Organism E: Streptococcus pneumoniae ATCC 49619).

As for `COc1c(N2CC/C(=C(\Cl)CN)C2)c(F)cc2c(=O)c(C(=O)O)cn(C3CC3)c12` [Compound 14, (E)-7-[3-(2-Amino-1-chloro-ethylidene)-pyrrolidin-1-yl]-1-cyclopropyl-6-fluoro-8-methoxy-4-oxo-1,4-dihydro-quinoline-3-carboxylic acid], the MIC runs as follows: under setting [1], 0.03 µg/mL (≈ 0.0711 µM); under setting [2], 0.25 µg/mL (≈ 0.593 µM); under setting [3], 2 µg/mL (≈ 4.74 µM); under setting [4], 1 µg/mL (≈ 2.37 µM); under setting [5], 1 µg/mL (≈ 2.37 µM).

Regarding `NCC=C1CCN(c2nc3c(cc2F)c(=O)c(C(=O)O)cn3C2CC2)CC1` [Compound 59, 7-[4-(2-Amino-ethylidene)-piperidin-1-yl]-1-cyclopropyl-6-fluoro-4-oxo-1,4-dihydro-[1,8]naphthyridine-3-carboxylic acid], the MIC was determined as 0.06 µg/mL (≈ 0.161 µM) under setting [1], 0.5 µg/mL (≈ 1.34 µM) under setting [2], 8 µg/mL (≈ 21.5 µM) under setting [3] and 8 µg/mL (≈ 21.5 µM) under setting [4].

In the case of `NCC=C1CCN(c2nc3c(cc2F)c(=O)c(C(=O)O)cn3C2CC2)CC1O` (centres unmarked) [Compound 60, 7-[4-(2-Amino-ethylidene)-3-hydroxy-piperidin-1-yl]-1-cyclopropyl-6-fluoro-4-oxo-1,4-dihydro-[1,8]naphthyridine-3-carboxylic acid], the MIC reads like this: under setting [1], 2 µg/mL (≈ 5.15 µM); under setting [2], 16 µg/mL (≈ 41.2 µM); under setting [4], 16 µg/mL (≈ 41.2 µM).

For the compound `CON=C1CN(c2nc3c(cc2F)c(=O)c(C(=O)O)cn3C2CC2)CCC1=CCN` [Compound 61, 7-[4-(2-Amino-ethylidene)-3-methoxyimino-piperidin-1-yl]-1-cyclopropyl-6-fluoro-4-oxo-1,4-dihydro-[1,8]naphthyridine-3-carboxylic acid], the MIC under setting [1] turned out to be 0.12 µg/mL (≈ 0.289 µM), the MIC under setting [2] is 1 µg/mL (≈ 2.41 µM) and the MIC under setting [4] amounted to 16 µg/mL (≈ 38.5 µM).

For `CC(CN)=C1CCN(c2nc3c(cc2F)c(=O)c(C(=O)O)cn3C2CC2)CC1O` (centres unmarked) [Compound 62, 7-[4-(2-Amino-1-methyl-ethylidene)-3-hydroxy-piperidin-1-yl]-1-cyclopropyl-6-fluoro-4-oxo-1,4-dihydro-[1,8]naphthyridine-3-carboxylic acid], the MIC by setting is: under setting [1], 2 µg/mL (≈ 4.97 µM); under setting [2], 8 µg/mL (≈ 19.9 µM); under setting [3], over 16 µg/mL; under setting [4], over 16 µg/mL.

`CC(CN)=C1CCN(c2cc3c(cc2F)c(=O)c(C(=O)O)cn3C2CC2)CC1` [Compound 64, 7-[4-(2-Amino-1-methyl-ethylidene)-piperidin-1-yl]-1-cyclopropyl-6-fluoro-4-oxo-1,4-dihydro-quinoline-3-carboxylic acid]: the MIC reads like this: under setting [1], 0.12 µg/mL (≈ 0.311 µM); under setting [2], 1 µg/mL (≈ 2.59 µM); under setting [3], 8 µg/mL (≈ 20.8 µM); under setting [4], 2 µg/mL (≈ 5.19 µM); under setting [5], 8 µg/mL (≈ 20.8 µM).

With `NCC(Cl)=C1CCN(c2cc3c(cc2F)c(=O)c(C(=O)O)cn3C2CC2)CC1` [Compound 65, 7-[4-(2-Amino-1-chloro-ethylidene)-piperidin-1-yl]-1-1-cyclopropyl-6-fluoro-4-oxo-1,4-dihydro-quinoline-3-carboxylic acid], the MIC under setting [1] worked out at 0.03 µg/mL (≈ 0.0739 µM), the MIC under setting [2] was 0.12 µg/mL (≈ 0.296 µM), 0.5 µg/mL (≈ 1.23 µM) was the least that counted as inhibitory under setting [4] (MIC) and the MIC under setting [5] was 1 µg/mL (≈ 2.46 µM).
